Read-outs that look alike come from different tables or passages of the source. Numbered stars: 1 amine (or outer) side, 2 acyl side, 3 side chain; on linkers, the order of the positions; unused ones are H or OH. Square brackets hold non-standard residues; d marks the D form. Side chains are listed from the residue outwards. Peptide text beside a SMILES is read from it. * marks the point of attachment. C22 diacid = O=C(O)CCCCCCCCCCCCCCCCCCCCC(=O)*; C20 diacid = O=C(O)CCCCCCCCCCCCCCCCCCC(=O)*; γGlu = O=C(O)[C@H](CCC(=O)[*:2])N[*:1]; εLys = N[C@@H](CCCCN[*:1])C(=O)[*:2]; Trx = NC[C@H]1CC[C@H](C(=O)O)CC1; AEEA = NCCOCCOCC(=O)O; Aib = CC(C)(N)C(=O)O

The nature of data set [1]: Pharmacokinetic study in minipigs (i.v.). The data set is classed as in vivo. The conditions noted are these: male, Göttingen, minipig, plasma, iv; read-out: Terminal half-live (converted). The procedure: The purpose of this study is to determine the protraction in vivo of the GLP-1 derivatives after i.v. administration to minipigs, i.e. the prolongation of their time in the body and thereby their time of action. This is done in a pharmacokinetic (PK) study, where the terminal half-life of the derivative in question is determined. By terminal half-life is meant the time it takes to halve a certain plasma concentration in the terminal elimination phase.
The derivatives of Examples 1-5 were dosed with 2 nmol/kg, the derivative of Example 6 was dosed with 5 nmol/kg, and the derivatives of Examples 7-9 were dosed with 15 nmol/kg.
Male Göttingen minipigs were obtained from Ellegaard Göttingen Minipigs (Dalmose, Denmark) approximately 7-14 months of age and weighing approximately 16-35 kg were used in the studies. The minipigs were housed either individually (pigs with permanent catheters) or in a group and fed restrictedly once or twice daily with SDS minipig diet (Special Diets Services, Essex, UK).
After at least 2 weeks of acclimatisation two permanent central venous catheters were implanted in vena cava caudalis or cranialis in each animal. The animals were allowed 1 week recovery after the surgery, and were then used for repeated pharmacokinetic studies with a suitable wash-out period between successive GLP-1 derivative dosings.
The GLP-1 derivatives were dissolved in 50 mM sodium phosphate, 70-145 mM sodium chloride, 0.05% tween 80, pH 7.4 to a concentration of usually from 20-60 nmol/ml.
Intravenous injections (the volume corresponding to for example 0.050-0.125 ml/kg) of the compounds were given through one catheter or through the venflon, and blood was sampled at predefined time points for up till 25 days post dosing (preferably through the other catheter or by venipuncture). Blood samples (for example 0.8 ml) were collected in EDTA buffer (8 mM) and then centrifuged at 4° C. and 1942G for 10 minutes.
Plasma was pipetted into Micronic tubes on dry ice, and kept at −20° C. until analysed for plasma concentration of the respective GLP-1 compound using LOCI. Individual plasma concentration-time profiles were analyzed by a non-compartmental pharmacokinetic method in Phoenix v. 6.2 (Pharsight Inc., Mountain View, Calif., USA), or other relevant software for PK analysis, and the resulting terminal half-lives (harmonic mean) determined.

Data set [2] addresses T1, human GLP-1 receptor (Homo sapiens, UniProt P43220).
T1 construct: expressed in transfected cells; host or cells: membranes prepared from BHK cells (parent line BHKTS13), clone FCW467-12A
Put plainly: GLP-1 receptor binding, competitive binding assay (125I-GLP-1, SPA) on isolated membranes.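 Also: test compounds added at a range of concentrations to membranes from cells expressing the human GLP-1 receptor, scored by displacement of labelled ligand, read with WGA SPA beads.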
Method: The purpose of this example is to test the receptor binding of the GLP-1 derivatives in vitro. The receptor binding is a measure of affinity of a derivative for the human GLP-1 receptor.
In this type of assay a labelled ligand (in this case ^125I-GLP-1) is bound to the receptor. Each derivative is added in a series of concentrations to isolated membranes containing the human GLP-1 receptor and displacement of the labelled ligand is monitored. The receptor binding is reported as the concentration at which half of the labelled ligand is displaced from the receptor, the IC50 value.
The following chemicals were used in the assay: Human serum albumin (HSA) (Sigma A1653), DMEM w/o phenol red (Gibco 11880-028), Pen/strep (Invitrogen 15140-122), G418 (Invitrogen 10131-027), 1 M Hepes (Gibco 15630), EDTA (Invitrogen 15575-038), PBS (Invitrogen 14190-094), fetal calf serum (Invitrogen 16140-071), EGTA, MgCl2 (Merck 1.05832.1000), Tween 20 (Amresco 0850C335), SPA particles (wheat germ agglutinin (WGA) SPA beads, Perkin Elmer RPNQ0001), [^125I]-GLP-1]-(7-36)NH2 (produced in-house), OptiPlate™-96 (Packard 6005290).
Buffer 1 consisted of 20 mM Na-HEPES plus 10 mM EDTA and pH was adjusted to 7.4. Buffer 2 consisted of 20 mM Na-HEPES plus 0.1 mM EDTA and pH was adjusted to 7.4. Assay buffer consisted of 50 mM HEPES supplemented with 5 mM EGTA, 5 mM MgCl2, 0.005% Tween 20 and pH was adjusted to 7.4. An 8% albumin stock consisted of HSA dissolved at 8% (w/v) in assay buffer. An 0.02% albumin stock consisted of HSA dissolved at 0.02% (w/v) in assay buffer.
The cells express the human GLP-1 receptor.
The cells were grown at 5% CO2 in DMEM, 10% fetal calf serum, 1% Pen/Strep (Penicillin/Streptomycin) and 1.0 mg/ml of the selection marker G418.
To make a membrane preparation the cells were grown to approximately 80% confluence. The cells were washed twice in phosphate-buffered saline and harvested. The cells were pelleted using a brief centrifugation and the cell pellet was kept on ice. The cell pellet was homogenised with ULTRA-THURRAX™ dispersing instrument for 20-30 seconds in a suitable amount of buffer 1 (e.g., 10 ml). The homogenate was centrifuged for 15 minutes. The pellet was re-suspended (homogenised) in 10 ml buffer 2 and centrifuged. This step was repeated once more. The resulting pellet was re-suspended in buffer 2 and the protein concentration was determined. The membranes were aliquoted and stored at minus 80° C.
For the receptor binding assay in the presence of low HSA (0.005%) 50 μl of the assay buffer was added to each well of an assay plate.
For the receptor binding assay in the presence of high HSA (2%) 50 μl of the 8% albumin stock was added to each well of an assay plate.
Cell membrane aliquots were thawed and diluted to their working concentration. Fifty μl were added to each well in the assay plate.
WGA SPA beads were suspended in assay buffer at 20 mg/ml. The suspension was diluted to 10 mg/ml in assay buffer just prior to addition to the assay plate. Fifty μl were added to each well in the assay plate.
The incubation was started by adding 25 μl of 480 pM solution of [^125I]-GLP-1]-(7-36)NH2 to each well of the assay plate. A 25 μl aliquot was reserved for measuring total counts/well.
The assay plate was incubated for 2 h at 30° C.
The assay plate was centrifuged for 10 min.
The assay plate was read in a Packard TopCount NXT instrument.
The data from the TopCount instrument were transferred to GraphPad Prism software. The software averaged the values for the replicates and performed a non-linear regression. IC50 values were calculated by the software and reported in nM.

Data set [3] addresses T1, human GLP-1 receptor. As to the kind of experiment: In vitro potency, CRE luciferase reporter gene assay in BHK cells expressing the human GLP-1 receptor. The format is cell-based. The conditions noted are these: whole cell reporter gene assay, 3 h incubation, no HSA, averages of at least two replicates. The method in brief: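 Stably transfected BHK cells (5×10^3/well) expressing human GLP-1R with a CRE-luciferase reporter; compounds diluted in buffer with 2% ovalbumin and 0.2% Pluronic F-68, final 1×10^−7 to 1×10^−14 M. Incubated 3 h at 37 °C, 5% CO2, then luminescence read; potency from non-linear log(agonist)–response fit, mean of ≥2 replicates.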

Setting [4] is: High HSA IC50 (nM), high serum albumin (2.0% HSA final assay concentration).
Setting [5] is: Low HSA IC50 (nM), low serum albumin (max. 0.001% final assay concentration).

T1 sequence (P43220 24-463): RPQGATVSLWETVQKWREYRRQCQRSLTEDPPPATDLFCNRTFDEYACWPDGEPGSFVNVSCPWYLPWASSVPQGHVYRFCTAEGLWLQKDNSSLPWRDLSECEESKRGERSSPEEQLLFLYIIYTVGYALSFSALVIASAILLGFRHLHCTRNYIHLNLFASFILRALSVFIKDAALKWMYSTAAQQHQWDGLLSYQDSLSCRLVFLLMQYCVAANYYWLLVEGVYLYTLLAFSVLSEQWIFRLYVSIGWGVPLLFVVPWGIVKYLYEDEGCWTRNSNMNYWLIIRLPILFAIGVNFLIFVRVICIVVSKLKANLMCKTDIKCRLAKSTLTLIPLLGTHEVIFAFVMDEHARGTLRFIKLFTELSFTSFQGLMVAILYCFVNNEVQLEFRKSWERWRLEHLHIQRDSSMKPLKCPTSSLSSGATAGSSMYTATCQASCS

The IC50 is the concentration at which inhibition is half-maximal. Broadly, the EC50 is the midpoint of the concentration-response curve. A higher EC50 goes with lower potency in that assay. Turning to `CC[C@H](C)[C@H](NC(=O)[C@H](Cc1ccccc1)NC(=O)[C@H](CCC(=O)O)NC(=O)[C@H](CCCNC(=N)N)NC(=O)[C@H](C)NC(=O)[C@H](C)NC(=O)[C@H](CCC(N)=O)NC(=O)[C@H](CCC(=O)O)NC(=O)[C@H](CCC(=O)O)NC(=O)[C@H](CC(C)C)NC(=O)[C@H](Cc1ccc(O)cc1)NC(=O)[C@H](CO)NC(=O)[C@H](CO)NC(=O)[C@@H](NC(=O)[C@H](CC(=O)O)NC(=O)[C@H](CO)NC(=O)[C@@H](NC(=O)[C@H](Cc1ccccc1)NC(=O)[C@@H](NC(=O)CNC(=O)[C@H](CCC(=O)O)NC(=O)C(C)(C)NC(=O)[C@@H](N)Cc1c[nH]cn1)[C@@H](C)O)[C@@H](C)O)C(C)C)C(=O)N[C@@H](C)C(=O)N[C@@H](Cc1c[nH]c2ccccc12)C(=O)N[C@@H](CC(C)C)C(=O)N[C@H](C(=O)N[C@@H](CCCNC(=N)N)C(=O)NCC(=O)N[C@@H](CCCNC(=N)N)C(=O)NCC(=O)N[C@@H](CCCCNC(=O)COCCOCCNC(=O)COCCOCCNC(=O)CC[C@H](NC(=O)[C@H]1CC[C@H](CNC(=O)CCCCCCCCCCCCCCCCCCC(=O)O)CC1)C(=O)O)C(=O)NCC(=O)NCC(=O)N[C@@H](CO)C(=O)N[C@@H](CCCCNC(=O)COCCOCCNC(=O)COCCOCCNC(=O)CC[C@H](NC(=O)[C@H]1CC[C@H](CNC(=O)CCCCCCCCCCCCCCCCCCC(=O)O)CC1)C(=O)O)C(=O)O)C(C)C` [Example 3] (H-H[Aib]EGTFTSDVSSYLEEQAAREFIAWLVRGRGK([AEEA-AEEA-γGlu-Trx-C20 diacid])GGSK([AEEA-AEEA-γGlu-Trx-C20 diacid])-OH), in data set [1], the half-life was 147 h. The half-inhibitory concentration (IC50) at human GLP-1 receptor [2] (setting [4]) was 185 nM; at human GLP-1 receptor [2] (setting [5]), 1.2 nM. Moreover, on human GLP-1 receptor [3], the EC50 was 0.043 nM.

As for `CC[C@H](C)[C@H](NC(=O)[C@H](Cc1ccccc1)NC(=O)[C@H](CCC(=O)O)NC(=O)[C@H](CCCNC(=N)N)NC(=O)[C@H](C)NC(=O)[C@H](C)NC(=O)[C@H](CCC(N)=O)NC(=O)[C@H](CCC(=O)O)NC(=O)[C@H](CCC(=O)O)NC(=O)[C@H](CC(C)C)NC(=O)[C@H](Cc1ccc(O)cc1)NC(=O)[C@H](CCCCNC(=O)COCCOCCNC(=O)COCCOCCNC(=O)CC[C@H](NC(=O)[C@H]1CC[C@H](CNC(=O)CCCCCCCCCCCCCCCCCCC(=O)O)CC1)C(=O)O)NC(=O)[C@H](CO)NC(=O)[C@@H](NC(=O)[C@H](CC(=O)O)NC(=O)[C@H](CO)NC(=O)[C@@H](NC(=O)[C@H](Cc1ccccc1)NC(=O)[C@@H](NC(=O)CNC(=O)[C@H](CCC(=O)O)NC(=O)C(C)(C)NC(=O)[C@@H](N)Cc1c[nH]cn1)[C@@H](C)O)[C@@H](C)O)C(C)C)C(=O)N[C@@H](C)C(=O)N[C@@H](Cc1c[nH]c2ccccc12)C(=O)N[C@@H](CC(C)C)C(=O)N[C@H](C(=O)N[C@@H](CCCNC(=N)N)C(=O)NCC(=O)N[C@@H](CCCNC(=N)N)C(=O)NCC(=O)NCC(=O)NCC(=O)NCC(=O)N[C@@H](CO)C(=O)N[C@@H](CCCCNC(=O)COCCOCCNC(=O)COCCOCCNC(=O)CC[C@H](NC(=O)[C@H]1CC[C@H](CNC(=O)CCCCCCCCCCCCCCCCCCC(=O)O)CC1)C(=O)O)C(=O)O)C(C)C` [Example 6] (H-H[Aib]EGTFTSDVSK([AEEA-AEEA-γGlu-Trx-C20 diacid])YLEEQAAREFIAWLVRGRGGGGSK([AEEA-AEEA-γGlu-Trx-C20 diacid])-OH), the half-life in data set [1] was 99 h. In addition, the IC50 on human GLP-1 receptor [2] (setting [4]) is at least 1000 nM; at human GLP-1 receptor [2] (setting [5]) it was 1 nM. At human GLP-1 receptor [3], the half-maximal effective concentration (EC50) is 0.093 nM.

For the compound `CC[C@H](C)[C@H](NC(=O)[C@H](Cc1ccccc1)NC(=O)[C@H](CCCCNC(=O)[C@@H](N)CCCCNC(=O)[C@@H](N)CCCCNC(=O)CC[C@H](NC(=O)CCCCCCCCCCCCCCCCCCC(=O)O)C(=O)O)NC(=O)[C@H](CCCNC(=N)N)NC(=O)[C@H](C)NC(=O)[C@H](C)NC(=O)[C@H](CCC(N)=O)NC(=O)[C@H](CCC(=O)O)NC(=O)[C@H](CCC(=O)O)NC(=O)[C@H](CC(C)C)NC(=O)[C@H](Cc1ccc(O)cc1)NC(=O)[C@H](CO)NC(=O)[C@H](CO)NC(=O)[C@@H](NC(=O)[C@H](CC(=O)O)NC(=O)[C@H](CO)NC(=O)[C@@H](NC(=O)[C@H](Cc1ccccc1)NC(=O)[C@@H](NC(=O)CNC(=O)[C@H](CCC(=O)O)NC(=O)C(C)(C)NC(=O)[C@@H](N)Cc1c[nH]cn1)[C@@H](C)O)[C@@H](C)O)C(C)C)C(=O)N[C@@H](C)C(=O)N[C@@H](Cc1c[nH]c2ccccc12)C(=O)N[C@@H](CC(C)C)C(=O)N[C@H](C(=O)N[C@@H](CCCNC(=N)N)C(=O)NCC(=O)N[C@@H](CCCNC(=N)N)C(=O)NCC(=O)NCC(=O)NCC(=O)NCC(=O)N[C@@H](CO)C(=O)N[C@@H](CCCCNC(=O)[C@@H](N)CCCCNC(=O)[C@@H](N)CCCCNC(=O)CC[C@H](NC(=O)CCCCCCCCCCCCCCCCCCC(=O)O)C(=O)O)C(=O)O)C(C)C` [Example 8, N{Epsilon-27}-[(2S)-2-amino-6-[[(2S)-2-amino-6-[[(4S)-4-carboxy-4-(19-carboxynonadecanoylamino)butanoyl]amino]hexanoyl]amino]hexanoyl]-[Aib8,Glu22,Arg26,Lys27,Arg34]-GLP-1-(7-37)-peptidyl-Gly-Gly-Gly-Ser-N{Epsilon}[(2S)-2-amino-6-[[(2S)-2-amino-6-[[(4S)-4-carboxy-4-(19-carboxynonadecanoylamino)butanoyl]amino]hexanoyl]amino]hexanoyl]Lys] (H-H[Aib]EGTFTSDVSSYLEEQAARK([εLys-εLys-γGlu-C20 diacid])FIAWLVRGRGGGGSK([εLys-εLys-γGlu-C20 diacid])-OH), the half-life in data set [1] was 137 h. Further, the IC50 on human GLP-1 receptor [2] (high serum albumin (2.0% HSA final assay concentration), read-out: High HSA IC50) was 383 nM; at human GLP-1 receptor [2] (low serum albumin (max. 0.001% final assay concentration), read-out: Low HSA IC50), 0.43 nM. A half-maximal response on human GLP-1 receptor [3] (EC50) required 0.26 nM.

As for `CC[C@H](C)[C@H](NC(=O)[C@H](Cc1ccccc1)NC(=O)[C@H](CCC(=O)O)NC(=O)[C@H](CCCNC(=N)N)NC(=O)[C@H](C)NC(=O)[C@H](C)NC(=O)[C@H](CCC(N)=O)NC(=O)[C@H](CCC(=O)O)NC(=O)[C@H](CCC(=O)O)NC(=O)[C@H](CC(C)C)NC(=O)[C@H](Cc1ccc(O)cc1)NC(=O)[C@H](CO)NC(=O)[C@H](CO)NC(=O)[C@@H](NC(=O)[C@H](CC(=O)O)NC(=O)[C@H](CO)NC(=O)[C@@H](NC(=O)[C@H](Cc1ccccc1)NC(=O)[C@@H](NC(=O)CNC(=O)[C@H](CCC(=O)O)NC(=O)C(C)(C)NC(=O)[C@@H](N)Cc1c[nH]cn1)[C@@H](C)O)[C@@H](C)O)C(C)C)C(=O)N[C@@H](C)C(=O)N[C@@H](Cc1c[nH]c2ccccc12)C(=O)N[C@@H](CC(C)C)C(=O)N[C@H](C(=O)N[C@@H](CCCNC(=N)N)C(=O)NCC(=O)N[C@@H](CCCNC(=N)N)C(=O)NCC(=O)N[C@@H](CCCCNC(=O)COCCOCCNC(=O)COCCOCCNC(=O)CC[C@H](NC(=O)[C@H]1CC[C@H](CNC(=O)CCCCCCCCCCCCCCCCCCCCC(=O)O)CC1)C(=O)O)C(=O)NCC(=O)NCC(=O)N[C@@H](CO)C(=O)N[C@@H](CCCCNC(=O)COCCOCCNC(=O)COCCOCCNC(=O)CC[C@H](NC(=O)[C@H]1CC[C@H](CNC(=O)CCCCCCCCCCCCCCCCCCCCC(=O)O)CC1)C(=O)O)C(=O)O)C(C)C` [Example 9] (H-H[Aib]EGTFTSDVSSYLEEQAAREFIAWLVRGRGK([AEEA-AEEA-γGlu-Trx-C22 diacid])GGSK([AEEA-AEEA-γGlu-Trx-C22 diacid])-OH), the half-life in data set [1] was 167 h. For the same compound, the IC50 at human GLP-1 receptor [2] (setting [4]) worked out at 21 nM; on human GLP-1 receptor [2] (setting [5]) it was 1.6 nM. The same compound displayed an EC50 on human GLP-1 receptor [3] of 0.101 nM.
